Reference: patent US20260297109A1, “COMPOUNDS AS SUMO ACTIVATING ENZYME INHIBITORS” (WIGEN BIOMEDICINE TECHNOLOGY (SHANGHAI) CO., LTD., priority 2022, published 2026)
Read-outs that look alike come from different tables or passages of the source. Values belong to the compound of their own block, whether it stands above or below them.

Experiments:
SAE = biological target: T1, SAE (Homo sapiens, UniProt Q9UBT2); test: SUMO IF: in vitro inhibitory activity assay against SAE in HCT116 cells (SUMO-2/3 immunofluorescence); assay type: cell-based; details: numeric values, 6 h at 37° C.
T1 construct: endogenous in cells; host or cells: HCT116
T1 sequence (Q9UBT2 1-640): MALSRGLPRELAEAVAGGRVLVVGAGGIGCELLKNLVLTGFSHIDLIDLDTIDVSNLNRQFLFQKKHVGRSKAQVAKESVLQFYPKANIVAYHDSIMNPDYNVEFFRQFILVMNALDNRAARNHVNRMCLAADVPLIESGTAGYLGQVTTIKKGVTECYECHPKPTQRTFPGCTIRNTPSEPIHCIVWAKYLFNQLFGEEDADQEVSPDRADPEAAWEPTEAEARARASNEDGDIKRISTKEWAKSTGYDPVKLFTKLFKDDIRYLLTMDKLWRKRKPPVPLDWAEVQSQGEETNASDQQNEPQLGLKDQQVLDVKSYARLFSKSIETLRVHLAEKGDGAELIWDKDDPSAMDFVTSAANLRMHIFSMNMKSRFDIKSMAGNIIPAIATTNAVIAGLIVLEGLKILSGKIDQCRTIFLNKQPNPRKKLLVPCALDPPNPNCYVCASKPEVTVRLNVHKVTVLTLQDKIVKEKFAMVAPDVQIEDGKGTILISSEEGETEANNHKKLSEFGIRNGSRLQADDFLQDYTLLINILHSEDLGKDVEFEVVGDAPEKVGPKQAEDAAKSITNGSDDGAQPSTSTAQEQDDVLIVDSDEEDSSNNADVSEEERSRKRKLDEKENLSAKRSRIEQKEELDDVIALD
T1 sequence (Q9UBE0 1-346): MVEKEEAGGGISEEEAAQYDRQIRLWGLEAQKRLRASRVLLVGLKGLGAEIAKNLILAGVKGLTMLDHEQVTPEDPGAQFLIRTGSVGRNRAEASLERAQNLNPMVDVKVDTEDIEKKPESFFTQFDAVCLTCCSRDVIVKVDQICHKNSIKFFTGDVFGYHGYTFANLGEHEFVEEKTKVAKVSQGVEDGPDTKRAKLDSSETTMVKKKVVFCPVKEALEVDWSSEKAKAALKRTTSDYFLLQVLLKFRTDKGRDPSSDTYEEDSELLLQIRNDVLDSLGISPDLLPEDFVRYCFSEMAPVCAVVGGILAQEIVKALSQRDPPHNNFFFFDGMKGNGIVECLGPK
In short: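 SUMO-2/3 immunofluorescence (18H8 primary 1:400, FITC secondary 1:300) was read after 6 h compound exposure of HCT116 cells at 37 °C. Inhibition rate and IC50 derive from signal relative to DMSO-treated wells.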

[1] = In vivo pharmacokinetic experiment in CD-1 female mice, intravenous; details: CD-1 mice; for Plasma AUClast: plasma (Table 4); for C0 / clearance / half-life / AUC(0-t) / Cmax / Vd / blood plasma ratio: mouse; for Vd: read-out: Vdss; for blood plasma ratio: in vivo, iv
Description: Biological Example 3. In Vivo Pharmacokinetic Experiment of Compound of the Present Disclosure
[…] The mice were fasted for at least 12 h before the administration and given food after the administration, and they were given ad libitum access to water during the experiment. On the day of the experiment, animals in the intravenous group were administered the corresponding compound by single injection via the tail vein at an administration volume of 0.2 mL/animal. The sample collection time was 0.083 h, 0.167 h, 0.5 h, 1 h, 2 h, 4 h, 8 h, and 24 h. About 150 μL of whole blood was collected through the submaxillary venous plexus at each time point (30 μL of whole blood was diluted with ultrapure water at a ratio of 1:3, and 120 μL of whole blood was centrifuged to obtain plasma) and used for concentration determination by high-performance liquid chromatography-tandem mass spectrometry (LC-MS/MS). All animals were sacrificed after the PK samples were collected at the last time point. The plasma concentration was processed using a non-compartmental model of Phoenix WinNonlin™ version 8.3 (Certara) pharmacokinetic software, and the pharmacokinetic parameters were calculated using a linear-log trapezoidal method.

Plasma AUClast ([1]; 2 mpk): 615 ng·h/mL
C0 ([1]; 2 mg/kg, 2 mpk, plasma): 431 ng/mL
clearance ([1]; 2 mg/kg, 2 mpk, plasma): 53.1 mL/min/kg
half-life ([1]; 2 mg/kg, 2 mpk, plasma): 4.73 h
AUC(0-t) ([1]; 2 mg/kg, 2 mpk, plasma, read-out: AUClast): 615 ng·h/mL
Cmax ([1]; 2 mg/kg, 2 mpk, plasma, read-out: Cmax): 331 ng/mL
Vd ([1]; 2 mg/kg, 2 mpk, plasma): 12.7 L/kg
AUC(0-t) ([1]; 2 mg/kg, 2 mpk, whole blood, read-out: Whole blood AUClast): 46600 ng·h/mL
Cmax ([1]; 2 mg/kg, 2 mpk, whole blood, read-out: Whole blood Cmax): 13400 ng/mL
blood plasma ratio ([1]; 2 mg/kg, 2 mpk, read-out: Whole blood AUClast/plasma AUClast ratio): 75.7
blood plasma ratio ([1]; 2 mg/kg, 2 mpk, read-out: Whole blood Cmax/plasma Cmax ratio): 40.5
SMILES: NS(=O)(=O)OC[C@H]1[C@H](F)[C@@H](Nc2ncncc2C(=O)c2cc3c(s2)CCC[C@]32NCCc3ccc(Cl)cc32)C[C@@H]1O [Compound 90]
IC50 (SAE): 21.1 nM

Plasma AUClast ([1]; 1 mpk): 132 ng·h/mL
C0 ([1]; 1 mg/kg, 1 mpk, plasma): 77 ng/mL
clearance ([1]; 1 mg/kg, 1 mpk, plasma): 103 mL/min/kg
half-life ([1]; 1 mg/kg, 1 mpk, plasma): 3.63 h
AUC(0-t) ([1]; 1 mg/kg, 1 mpk, plasma, read-out: AUClast): 132 ng·h/mL
Cmax ([1]; 1 mg/kg, 1 mpk, plasma, read-out: Cmax): 58 ng/mL
Vd ([1]; 1 mg/kg, 1 mpk, plasma): 27.6 L/kg
AUC(0-t) ([1]; 1 mg/kg, 1 mpk, whole blood, read-out: Whole blood AUClast): 30100 ng·h/mL
Cmax ([1]; 1 mg/kg, 1 mpk, whole blood, read-out: Whole blood Cmax): 4430 ng/mL
blood plasma ratio ([1]; 1 mg/kg, 1 mpk, read-out: Whole blood AUClast/plasma AUClast ratio): 228
blood plasma ratio ([1]; 1 mg/kg, 1 mpk, read-out: Whole blood Cmax/plasma Cmax ratio): 76.3
SMILES: Cc1sc(C(=O)c2cncnc2N[C@H]2C[C@H](O)[C@@H](COS(N)(=O)=O)[C@@H]2F)cc1[C@@H]1NCCc2ccc(Cl)cc21 [Compound 233]
IC50 (SAE): 42.6 nM
